The values that follow are results of earlier work, collected in patent US20100012891A1, “Tooth Whitening Compositions and Methods” (priority 2008, published 2010).

SMILES strings stand for the structures.

For the data set the following is noted: at six months, 16%-18% carbamide peroxide (Brunton et al., 2004).

Regarding `NC(N)=O.OO` [carbamide peroxide], the patients with rebound is on record as 40%.
